Patent publication US20230063703A1, “DRUG AND FOOD FOR TREATING AND/OR PREVENTING ENTERITIS AND/OR HEPATITIS” (priority 2020, published 2023)
Like-named read-outs stand apart in the source and are kept apart here.

Tests used:
[1] = tested on: DSS-induced colitis model mice; test: Enteritis-inhibiting effect of single species D-amino acids in DSS-induced colitis model mice; assay type: in vivo, mice (B6CL57); settings: single D-amino acid in drinking water 3 weeks, then 2% DSS; 8th day; compared with water containing all five D-amino acids
Procedure: The DAI scores were assigned for the following: diarrhea symptom (normal: 0, soft feces: 1, mild diarrhea: 2, moderate diarrhea: 3, severe diarrhea: 4); bloody stool symptom (normal: 0, mild bloody stool: 1, moderate bloody stool: 2, severe bloody stool: 3, severe bloody stool with anal bleeding: 4); and body weight reduction (None: 0, 1% to 5%: 1, 5% to 10%: 2, 10% to 20%: 3, ÷20%: 4), and the total values were calculated (minimum 0 points, maximum 12 points), for each mouse.

[2] = Blood D-serine concentration in mice given drinking water containing D-serine; assay type: in vivo; settings: free access to drinking water containing 1% D-serine
From the text: The blood concentration of administered D-serine is preferably 5 nmol/mL or greater, more preferably 10 nmol/mL or greater and even more preferably 50 nmol/mL or greater. The D-serine blood concentration is also preferably 1 μmol/mL or lower, more preferably 0.5 μmol/mL or lower and even more preferably 0.1 μmol/mL or lower.

[3] = tested on: kidneys; settings: cited from earlier work; for toxicity on the kidneys: rat, in vivo, ip; for amino acid excretion: after 2 hours

## C[C@@H](N)C(=O)O [D-Ala, D-alanine]
[1]
  DAI score: equivalent to drinking water containing all five D-amino acids
  body weight reduction suppressing effect: equivalent to drinking water containing all five D-amino acids

## N[C@H](CC(=O)O)C(=O)O [D-Asp, D-aspartic acid]
[1]
  DAI score: equivalent to drinking water containing all five D-amino acids
  body weight reduction suppressing effect: equivalent to drinking water containing all five D-amino acids

## N[C@H](CCC(=O)O)C(=O)O [D-Glu, D-glutamic acid]
[1]
  DAI score: significantly inhibited enteritis more than the drinking water containing all five D-amino acids
  body weight reduction suppressing effect: significantly inhibited enteritis more than the drinking water containing all five D-amino acids

## N[C@H](CO)C(=O)O [D-Ser, D-serine]
[1]
  DAI score: equivalent to drinking water containing all five D-amino acids
  body weight reduction suppressing effect: equivalent to drinking water containing all five D-amino acids
[2]
  blood D-serine concentration: 100 nmol/mL
[3]; 26 mg/kg
  toxicity on the kidneys: no toxicity
[3]; 267 mg/kg
  toxicity on the kidneys: toxicity of D-serine on the kidneys was exhibited
[3]; 800 mg/kg
  toxicity on the kidneys: toxicity of D-serine on the kidneys was exhibited
[3]; rats, intraperitoneal, 26 mg/kg
  amino acid excretion: no effect
[3]; rats, intraperitoneal, 80 mg/kg
  amino acid excretion: no effect
[3]; rats, intraperitoneal, 267 mg/kg
  amino acid excretion: significantly increased
[3]; rats, intraperitoneal, 800 mg/kg
  amino acid excretion: significantly increased
[3]; rats, intraperitoneal, doses such as 800 mg/kg, 400 mg/kg or 250 mg/kg
  nephrotoxicity: causes nephrotoxicity

## N[C@H](Cc1c[nH]c2ccccc12)C(=O)O [D-Trp, D-tryptophan]
[1]
  DAI score: significantly inhibited enteritis more than the drinking water containing all five D-amino acids
  body weight reduction suppressing effect: significantly inhibited enteritis more than the drinking water containing all five D-amino acids
